Experimental data taken from US20070037790A1, “Bicyclo-pyrazole derivatives active as kinase inhibitors, process for their preparation and pharmaceutical compositions comprising them” (priority 2003, published 2007).
pIC50: −log10 of the molar value.

Target: Cdk2/Cyclin A (Homo sapiens, UniProt P24941)
Experiment: Inhibition assay of Cdk2/Cyclin A activity (SPA)
Assay type: biochemical
Settings: 10 μM ATP, biotinylated histone H1 substrate, read-out: IC50 against Cdk2/Cyclin A
Procedure: The inhibiting activity of putative Cdk/Cyclin inhibitors and the potency of selected compounds is determined through a method of assay based on the use of the SPA technology (Amersham Pharmacia Biotech).
The assay consists of the transfer of radioactivity labelled phosphate moiety by the kinase to a biotinylated substrate. The resulting 33P-labelled biotinylated product is allowed to bind to streptavidin-coated SPA beads (biotin capacity 130 pmol/mg), and light emitted is measured in a scintillation counter.
Inhibition Assay of Cdk2/Cyclin A Activity
Kinase reaction: 4 μM in house biotinylated histone H1 (Sigma # H-5505) substrate, 10 μM ATP (0.1 microCi P^33γ-ATP), 4.2 ng Cdk2/Cyclin A complex, inhibitor in a final volume of 30 μl buffer (TRIS HCl 10 mM pH 7.5, MgCl2 10 mM, DTT 7.5 mM+0.2 mg/ml BSA) were added to each well of a 96 U bottom. After 30 min at r.t. incubation, reaction was stopped by 100 μl PBS+32 mM EDTA+0.1% Triton X-100+500 μM ATP, containing 1 mg SPA beads. Then a volume of 110 μl is transferred to Optiplate. After 20 min. incubation for substrate capture, 100 μl 5M CsCl were added to allow statification of beads to the top of the plate and let stand 4 hours before radioactivity counting in the Top-Count instrument
IC50 determination: inhibitors were tested at different concentrations ranging from 0.0015 to 10 μM. Experimental data were analyzed by the computer program GraphPad Prizm using the four parameter logistic equation: y=bottom+(top−bottom)/(1+10ˆ((log IC50−x)*slope)) where x is the logarithm of the inhibitor concentration, y is the response; y starts at bottom and goes to top with a sigmoid shape. Ki Calculation: Experimental method: Reaction was carried out in buffer (10 mM Tris, pH 7.5, 10 mM MgCl2, 0.2 mg/ml BSA, 7.5 mM DTI) containing 3.7 nM enzyme, histone and ATP (constant ratio of cold/labeled ATP 1/3000). Reaction was stopped with EDTA and the substrate captured on phosphomembrane (Multiscreen 96 well plates from Millipore). After extensive washing, the multiscreen plates are read on a top counter. Control (time zero) for each ATP and histone concentrations was measured. Experimental design: Reaction velocities are measured at different four ATP, substrate (histone) and inhibitor concentrations. An […] concentration matrix was designed around the respective ATP and substrate Km values, and the inhibitor IC50 values (0.3, 1, 3, 9 fold the Km or IC50 values). A preliminary time course experiment in the absence of inhibitor and at the different ATP and substrate concentrations allow the selection of a single endpoint time (10 min) in the linear range of the reaction for the Ki determination experiment. Kinetic parameter estimates: Kinetic parameters were estimated by simultaneous nonlinear least-square regression using [Eq.1] […]

pIC50	Compound
6.47	CC(C)(C)c1ccc(C(=O)Nc2n[nH]c3c2CN(c2ccnc(N4CCOCC4)n2)C3)cc1 [3-(4-tert-butyl-benzamido)-5-[2-(N-morpholino)pyrimidin-4-yl]-4,6-dihydropyrrolo[3,4-c]pyrazole]
6.66	3-(4-tert-butyl-benzamido)-5-[(2-propylamino)pyrimidin-4-yl]-4,6-dihydropyrrolo[3,4-c]pyrazole
5.60	CC(C)(C)c1ccc(C(=O)Nc2[nH]nc3c2CN(C(=O)c2cnccn2)C3)cc1 [N-{5-(pyrazine-2-carbonyl)-4,6-dihydropyrrolo[3,4-c]pyrazol-3-yl}-4-tertbutylbenzamide]
< 5.00	CC(C)(C)c1ccc(C(=O)Nc2[nH]nc3c2CN(C(=O)c2ccncc2)C3)cc1 [N-{5-(pyridine-4-carbonyl)-4,6-dihydropyrrolo[3,4-c]pyrazol-3-yl}-4-tertbutylbenzamide]
